Legend:
Assay in all cases: growth AUC relative to DMSO control (fraction); higher = more growth (less inhibition)
Conditions in all cases: 24 h
Eubacterium rectale = test system: Eubacterium rectale
Procedure: (§1)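 Validation screen: 11 independently purchased pesticides tested on 8 gut bacterial strains at 2.5–320 µM in mGAM, anaerobic, 37 °C, 24 h. Growth AUC normalised to DMSO controls, mean of 3 independent experiments.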

Escherichia coli IAI1 = test system: Escherichia coli IAI1
Procedure: as §1

[1] = test system: Parabacteroides distasonis
Procedure: as §1

Streptococcus salivarius = test system: Streptococcus salivarius
Procedure: as §1

Lactobacillus gasseri = test system: Lactobacillus gasseri
Procedure: as §1

Bacteroides uniformis = test system: Bacteroides uniformis
Procedure: as §1

Clostridium difficile = test system: Clostridium difficile
Procedure: as §1

Roseburia intestinalis = test system: Roseburia intestinalis
Procedure: as §1

N#Cc1c(Cl)c(Cl)c(Cl)c(C#N)c1Cl [CHLOROTHALONIL]
growth AUC
Conditions	Bacteroides uniformis	Clostridium difficile	Escherichia coli IAI1	Eubacterium rectale	Lactobacillus gasseri	Roseburia intestinalis	Streptococcus salivarius	[1]
2.5 µM	1.04	1.03	1.02	1.07	1.02	0.978	1.08	1.13
5 µM	1.01	1.01	0.986	0.894	1.03	1.01	0.963	1.04
10 µM	0.981	0.963	1.01	0.836	1	0.91	1	0.921
20 µM	0.889	0.993	0.974	0.593	0.925	0.713	0.907	0.961

CC[C@H](C)[C@H]1O[C@]2(C=C[C@@H]1C)C[C@@H]1C[C@@H](C/C=C(\C)[C@@H](O[C@H]3C[C@H](OC)[C@@H](O[C@H]4C[C@H](OC)[C@@H](NC)[C@H](C)O4)[C@H](C)O3)[C@@H](C)/C=C/C=C3\CO[C@@H]4[C@H](O)C(C)=C[C@@H](C(=O)O1)[C@]34O)O2.O=C(O)c1ccccc1 [EMAMECTIN BENZOATE]
growth AUC
Conditions	Bacteroides uniformis	Clostridium difficile	Escherichia coli IAI1	Eubacterium rectale	Lactobacillus gasseri	Roseburia intestinalis	Streptococcus salivarius	[1]
2.5 µM	1.03	1.01	1.06	1.03	1.01	0.859	1.08	1.09
5 µM	1.04	0.987	1.02	1.04	1.01	0.396	1	0.898
10 µM	0.992	0.916	1	0.693	0.949	0.0369	1.02	0.487
20 µM	1.03	0.967	0.979	0.0185	0.822	0.0348	0.938	0.0163
40 µM	0.839	0.654	1.05	0.0159	0.848	0.0127	1.14	0.00619
80 µM	0.669	0.0139	1.04	0.0289	1.02	0.00913	1.16	0.0234
160 µM	0.732	0.0469	1.06	0.126	1.07	0.0441	1.27	0.0419

CCCN(CCOc1c(Cl)cc(Cl)cc1Cl)C(=O)n1ccnc1 [PROCHLORAZ]
growth AUC
Conditions	Bacteroides uniformis	Clostridium difficile	Escherichia coli IAI1	Eubacterium rectale	Lactobacillus gasseri	Roseburia intestinalis	Streptococcus salivarius	[1]
2.5 µM	1	0.989	1	0.748	1.01	0.993	1.01	0.957
5 µM	0.994	0.977	0.987	0.524	1	1.02	0.995	0.858
10 µM	0.938	0.956	0.966	0.397	0.944	0.949	0.973	0.68
20 µM	0.92	1.01	0.956	0.125	0.931	0.718	0.945	0.608
40 µM	0.886	0.875	0.988	0.0225	0.957	0.594	0.984	0.363
80 µM	0.812	0.913	0.989	0.0308	0.903	0.0292	0.962	0.0195
160 µM	0.767	0.391	0.983	0.0176	0.836	0.0197	0.935	0.0246
